Experimental data reported in ChEMBL document CHEMBL1667741, “Rational design, synthesis, and characterization of highly fluorescent optical switches for high-contrast optical lock-in detection (OLID) imaging microscopy in living cells” (Bioorg Med Chem, 2011).

Legend:
Format in all cases: ADME, cell-based
Details in all cases: nih3t3; call rule not given here
[1] = Drug uptake in mouse NIH/3T3 cells assessed as fluorescent optical switching measured after continuous irradiation at 546 and 365 nm light by optical lock-in detection imaging microscopy
[2] = Drug uptake in mouse NIH/3T3 cells assessed as fluorescent optical switching measured after continuous irradiation at 546 nm light by optical lock-in detection imaging microscopy; design: dose or concentration left out as unconfirmed
[3] = Drug uptake in mouse NIH/3T3 cells assessed as fluorescent optical switching measured after every 2 s with 100 ms pulse of 365 nm irradiation by optical lock-in detection imaging microscopy

SMILES | Drug uptake [1] | Drug uptake [2] | Drug uptake [3]
CN(C)c1ccc2c(-c3ccc(C(=O)NC(CCCCNC(=O)CCCc4ccc5c(c4)C(C)(C)C4(C=Nc6c(ccc7ccccc67)O4)N5C)C(=O)O)cc3C(=O)[O-])c3ccc(=[N+](C)C)cc-3oc2c1 (centres undefined) | Active | – | –
COc1ccc2ccc3c(c2c1)N=CC1(O3)N(C)c2cccc(CNC(=O)c3ccc(-c4c5ccc(=[N+](C)C)cc-5oc5cc(N(C)C)ccc45)c(C(=O)[O-])c3)c2C1(C)C (centres undefined) | Active | Active | –
CN(C)c1ccc2c(-c3ccc(C(=O)NCCCOc4ccc5ccc6c(c5c4)N=CC4(O6)N(CCCCCC(=O)ON5C(=O)CCC5=O)c5ccccc5C4(C)C)cc3C(=O)[O-])c3ccc(=[N+](C)C)cc-3oc2c1 (centres undefined) | Active | – | –
CN(C)c1ccc2c(-c3ccc(C(=O)NCCCOc4ccc5ccc6c(c5c4)N=CC4(O6)N(C)c5ccc(CCCC(=O)ON6C(=O)CCC6=O)cc5C4(C)C)cc3C(=O)[O-])c3ccc(=[N+](C)C)cc-3oc2c1 (centres undefined) | Active | – | –
CN(C)c1ccc2c(-c3ccc(C(=O)NCc4cccc5c4C(C)(C)C4(C=Nc6c(ccc7ccc(O)cc67)O4)N5C)cc3C(=O)[O-])c3ccc(=[N+](C)C)cc-3oc2c1 (centres undefined) | Active | – | –
CN(C)c1ccc2c(-c3ccc(C(=O)NCCc4ccc5c(c4)C(C)(C)C4(C=Nc6c(ccc7ccccc67)O4)N5C)cc3C(=O)[O-])c3ccc(=[N+](C)C)cc-3oc2c1 (centres undefined) | Active | – | –
CN(C)c1ccc2c(-c3ccc(C(=O)NCc4cccc5c4C(C)(C)C4(C=Nc6c(ccc7ccccc67)O4)N5C)cc3C(=O)[O-])c3ccc(=[N+](C)C)cc-3oc2c1 (centres undefined) | Active | – | Active
